Experimental data taken from patent US9067974B2, “Polymyxin derivatives and uses thereof” (priority 2006, dated 2015).

Tests used:
E. coli IH3080 (K1:O18) = test: Well diffusion growth inhibition on LB agar plates (direct antibacterial activity); type: cell-based, Escherichia coli
Method: Peptides synthesized in Example 1, all carrying at least two (2) but not more than three (3) positive charges, were studied for their ability to inhibit the growth of E. coli. This was tested employing LB agar (LB Agar Lennox, Difco, BD, Sparks, Md., U.S.A) plates. The indicator organism E. coli IH3080 (K1:O18) was an encapsulated strain originally isolated from a neonate suffering from meningitis (Vaara et al. 1984) and obtained from National Public Health Institute, Helsinki, Finland.
(§1) From an overnight-grown culture of IH3080 on LB agar, a suspension of approx. 10^8 cells/ml was prepared in 0.9% NaCl. Aliquots of this suspension were then pipetted on the agar plates and the plates were gently shaken to spread the suspension evenly on the entire surface of the plate. Thereafter, the unabsorbed part of the suspension was removed by using a Pasteur pipette. After the surface had dried, small wells (diameter, 2 mm) were drilled on the plates (five wells per plate) by using a sterile sharp-edged narrow metal tube, single-use pipette tip, and vacuum suction. […] Controls included 0.9% NaCl solution without the compound to be tested. The plates were then incubated for 18 h at 37° C. whereafter the diameters of growth inhibition zones around each well were measured; the diameter of the well itself was not reduced. Finally, the diameters were converted to surface areas of growth inhibition (in square mm).

E. coli IH3080 = test: Sensitization to rifampin: well diffusion growth inhibition on LB plates containing rifampin; type: cell-based, Escherichia coli
Method: as §1

[1] = test system: Pseudomonas aeruginosa ATCC 27853; test: Well diffusion growth inhibition on LB agar plates (direct antibacterial activity); type: cell-based; conditions: Ps. aeruginosa ATCC 27853
Method: (§2) From an overnight-grown culture of IH3080 on LB agar, a suspension of approx. 10^8 cells/ml was prepared in 0.9% NaCl. Aliquots of this suspension were then pipetted on the agar plates and the plates were gently shaken to spread the suspension evenly on the entire surface of the plate. Thereafter, the unabsorbed part of the suspension was removed by using a Pasteur pipette. After the surface had dried, small wells (diameter, 2 mm) were drilled on the plates (five wells per plate) by using a sterile sharp-edged narrow metal tube, single-use pipette tip, and vacuum suction. Samples (4 μl and 10 μl) of the peptide solution in 0.9% NaCl (at concentrations of 1 μg/ml and 0.1 μg/ml) were then pipetted to the wells and the sample fluids were allowed to absorb. Controls included 0.9% NaCl solution without the compound to be tested. The plates were then incubated for 18 h at 37° C. whereafter the diameters of growth inhibition zones around each well were measured; the diameter of the well itself was not reduced. Finally, the diameters were converted to surface areas of growth inhibition (in square mm).
(§3) Direct antibacterial activity of twelve NAB compounds against Acinetobacter baumannii ATCC 19606 and Pseudomonas aeruginosa ATCC 27853 was tested by using the susceptibility determination method described in Example 2. Five compounds (NAB7062, NAB734, NAB737, NAB739, and NAB740) had notable activity against A. baumannii. […] The antibacterial activity of NAB739 and NAB740 were as strong as or even stronger than that of polymyxin B.

[2] = test system: Acinetobacter baumannii ATCC 19606; test: as above; type: cell-based; conditions: A. baumannii ATCC 19606
Method: as §2, §3

A. baumannii ATCC 19606 = test: Sensitization to rifampin: well diffusion growth inhibition on LB plates containing rifampin; type: cell-based, Acinetobacter baumannii; conditions: 4 μg of compound
[3] = test system: Ps. aeruginosa ATCC 27853; test: as above; type: cell-based, Pseudomonas aeruginosa; conditions: 4 μg of compound
[4] = 4 μg of compound, rifampin 0 μg/ml
[5] = 4 μg of compound, rifampin 0.1 μg/ml
[6] = 4 μg of compound, rifampin 1.0 μg/ml

| Compound | Antibacterial activity (growth inhibition area around a well) (E. coli IH3080 (K1:O18); 4 μg of compound per well) [square millimeters] | Antibacterial activity (growth inhibition area around a well) (E. coli IH3080 (K1:O18); 10 μg of compound per well) [square millimeters] | Antibacterial activity in the presence of rifampin (growth inhibition area around a well) (E. coli IH3080; [4]) [square millimeters] | Antibacterial activity in the presence of rifampin (growth inhibition area around a well) (E. coli IH3080; [5]) [square millimeters] | Antibacterial activity in the presence of rifampin (growth inhibition area around a well) (E. coli IH3080; [6]) [square millimeters] | further results |
| --- | --- | --- | --- | --- | --- | --- |
| Deacylcolistin [reference compound] | 79 | 95 | 79 | 87 | 127 |  |
| OA-Thr-Abu-cy[Dab-Dab-DPhe-Leu-Dab-Abu-Thr-] [NAB 709] | 0 | 0 | 0 | 0 | 13 |  |
| OA-Thr-Abu-cy[Dab-Dab-DLeu-Leu-Dab-Dab-Thr-] [NAB 718] | 0 | 0 | 0 | 13 | 133 | Antibacterial activity (growth inhibition area around a well) ([1]; 4 μg per well): 0 square millimeters; Antibacterial activity (growth inhibition area around a well) ([1]; 10 μg per well): 0 square millimeters; Antibacterial activity (growth inhibition area around a well) ([2]; 4 μg per well): 0 square millimeters; Antibacterial activity (growth inhibition area around a well) ([2]; 10 μg per well): 0 square millimeters; Antibacterial activity in the presence of rifampin (growth inhibition area around a well) (A. baumannii ATCC 19606; rifampin 0 μg/ml): 0 square millimeters; Antibacterial activity in the presence of rifampin (growth inhibition area around a well) (A. baumannii ATCC 19606; rifampin 0.1 μg/ml): 0 square millimeters; Antibacterial activity in the presence of rifampin (growth inhibition area around a well) (A. baumannii ATCC 19606; rifampin 0.3 μg/ml): 38 square millimeters; Antibacterial activity in the presence of rifampin (growth inhibition area around a well) ([3]; rifampin 0 μg/ml): 0 square millimeters; Antibacterial activity in the presence of rifampin (growth inhibition area around a well) ([3]; rifampin 0.1 μg/ml): 0 square millimeters; Antibacterial activity in the presence of rifampin (growth inhibition area around a well) ([3]; rifampin 0.3 μg/ml): 0 square millimeters |
| OA-Abu-cy[Dab-Dab-DPhe-Leu-Dab-Dab-Thr-] [NAB 713] | 0 | 0 | 0 | 20 | 38 |  |
| Polymyxin B heptapeptide [reference compound] | 0 | 0 | 0 | 0 | 38 |  |
| MHA-Dab-Thr-Dab-cy[Dab-Dab-DPhe-Leu-Abu-Abu-Thr-] [NAB 721] | 0 | 0 | 0 | 13 | 28 |  |
| MHA-Thr-Abu-cy[Dab-Dab-DPhe-Leu-Dab-Dab-Thr-] [NAB 706] | 5 | 7 | 5 | 79 | 133 |  |
| OA-Thr-Dab-cy[Dab-Abu-DPhe-Leu-Dab-Dab-Thr-] [NAB 715] | 0 | 0 | 0 | 0 | 33 |  |
| OA-Thr-Abu-cy[Dab-Lys-DPhe-Leu-Dab-Dab-Thr-] [NAB 731] | 0 | 0 | 0 | 0 | 5 | Antibacterial activity in the presence of rifampin (growth inhibition area around a well) (E. coli IH3080; 10 μg of compound, rifampin 1.0 μg/ml): 22 square millimeters |
| Deacylpolymyxin B [reference compound] | 57 | 113 | 57 | 79 | 127 |  |
| MHA-Abu-Thr-Abu-cy[Dab-Dab-DPhe-Leu-Dab-Dab-Thr-] [NAB 707] | 5 | 7 | 5 | 87 | 113 |  |
| OA-Thr-Abu-cy[Dab-Abu-DPhe-Leu-Dab-Dab-Thr-] [NAB 710] | 0 | 7 | 0 | 7 | 13 |  |
| OA-DAla-DAla-cy[Dab-Dab-DPhe-Leu-Dab-Dab-Thr-] [NAB 733] | 0 | 0 | 0 | 95 | 113 |  |
| CO[C@H]1/C=C/O[C@@]2(C)Oc3c(C)c(O)c4c(O)c(c(/C=N/N5CCN(C)CC5)c(O)c4c3C2=O)NC(=O)/C(C)=C\C=C\[C@H](C)[C@H](O)[C@@H](C)[C@@H](O)[C@@H](C)[C@H](OC(C)=O)[C@@H]1C [rifampin, reference compound] |  |  |  |  |  | Concentration of rifampin needed for the inhibitory effect in the absence of the compounds tested (E. coli IH3080; LB plates): 10 µg/mL |
